Test results as given in US8163793B2, “Proline derivatives” (Hoffman-La Roche Inc., priority 2009, dated 2012).

Columns and labels:
Cathepsin S = Cathepsin S (UniProt P25774); assay: Cathepsin enzyme inhibition assay (fluorogenic peptide substrate Z-Val-Val-Arg-AMC), Cathepsin S; assay type: biochemical, human and mouse; conditions: enzyme 1 nM, substrate 20 μM, pH 6.5; read-out: CatS IC50
Procedure, shortened: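 Compounds were combined with 1 nM human or mouse enzyme, and substrate then started the reaction. The buffer was potassium phosphate (100 mM, pH 6.5) containing EDTA-Na 5 mM, Triton X-100 0.001% and […] 5 mM.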

Cat L = Cat L (UniProt P07711); assay: Cathepsin enzyme inhibition assay (fluorogenic peptide substrate Z-Val-Val-Arg-AMC), Cathepsin L; assay type: biochemical, human and mouse; conditions: enzyme 1 nM, substrate 20 μM, pH 6.5; read-out: CatL IC50
Procedure, shortened: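 Fluorogenic cleavage of Z-Val-Val-Arg-AMC (20 μM) by 1 nM Cat L was monitored at ex 360/em 465 nm for 20 min, the linear phase. The buffer was 100 mM potassium phosphate pH 6.5 with 5 mM EDTA and DTT. IC50 values were derived by standard methods, in μM.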

Structure (SMILES)	IC50 (Cathepsin S) [nM]	IC50 (Cat L) [nM]
Cn1nc(C(C)(C)C)cc1C(=O)N1C[C@H](S(=O)(=O)c2ccc(OCC(F)(F)F)cc2Cl)C[C@H]1C(=O)NC1(C#N)CC1 [Example 386, (2S,4R)-1-(5-tert-Butyl-2-methyl-2H-pyrazole-3-carbonyl)-4-[2-chloro-4-(2,2,2-trifluoro-ethoxy)-benzenesulfonyl]-pyrrolidine-2-carboxylic acid (1-cyano-cyclopropyl)-amide]	1.75	4030
COc1ccc(S(=O)(=O)[C@@H]2C[C@@H](C(=O)NC3(C#N)CC3)N(C(=O)OC(C)(C)C)C2)c(Cl)c1 [Example 387, (2S,4R)-4-(2-Chloro-4-methoxy-benzenesulfonyl)-2-(1-cyano-cyclopropylcarbamoyl)-pyrrolidine-1-carboxylic acid tert-butyl ester]	6.7	52500
Cn1nc(N2C[C@H](S(=O)(=O)c3ccccc3C(F)(F)F)C[C@H]2C(=O)NC2(C#N)CC2)cc1C1CCOCC1 [Example 393, (2S,4R)-1-[1-Methyl-5-(tetrahydro-pyran-4-yl)-1H-pyrazol-3-yl]-4-(2-trifluoromethyl-benzenesulfonyl)-pyrrolidine-2-carboxylic acid (1-cyano-cyclopropyl)-amide]	3.75	≥ 25000
N#CC1(NC(=O)[C@@H]2C[C@@H](S(=O)(=O)c3ccccc3C(F)(F)F)CN2c2ccc(F)c(Cl)c2)CC1 [Example 394, (2S,4R)-1-(3-Chloro-4-fluoro-phenyl)-4-(2-trifluoromethyl-benzenesulfonyl)-pyrrolidine-2-carboxylic acid (1-cyano-cyclopropyl)-amide]	2.95	≥ 25000
N#CC1(NC(=O)[C@H]2C[C@H](S(=O)(=O)c3ccccc3C(F)(F)F)CN2c2ccc(F)c(Cl)c2)CC1 [Example 395, (2R,4S)-1-(3-Chloro-4-fluoro-phenyl)-4-(2-trifluoromethyl-benzenesulfonyl)-pyrrolidine-2-carboxylic acid (1-cyano-cyclopropyl)-amide]	155	≥ 25000
Cc1cc(N2C[C@H](S(=O)(=O)c3ccc(F)cc3C(F)(F)F)C[C@H]2C(=O)NC2(C#N)CC2)n(C2CCOCC2)n1 [Example 396, (2S,4R)-4-(4-Fluoro-2-trifluoromethyl-benzenesulfonyl)-1-[5-methyl-2-(tetrahydro-pyran-4-yl)-2H-pyrazol-3-yl]-pyrrolidine-2-carboxylic acid (1-cyano-cyclopropyl)-amide]	1.65	57500
N#CC1(NC(=O)[C@@H]2C[C@@H](S(=O)(=O)c3ccccc3Cl)CN2c2nnc(C(F)(F)F)s2)CC1 [Example 399]	0.98	> 25000
N#CC1(NC(=O)[C@@H]2C[C@@H](S(=O)(=O)c3ccccc3C(F)(F)F)CN2c2cc(C3CC3)n[nH]2)CC1 [Example 400, (2S,4R)-1-(5-Cyclopropyl-2H-pyrazol-3-yl)-4-(2-trifluoromethyl-benzenesulfonyl)-pyrrolidine-2-carboxylic acid (1-cyano-cyclopropyl)-amide]	3.3	≥ 25000
CS(=O)(=O)c1cccc(N2C[C@H](S(=O)(=O)c3ccccc3C(F)(F)F)C[C@H]2C(=O)NC2(C#N)CC2)c1 [Example 402, (2S,4R)-1-(3-Methanesulfonyl-phenyl)-4-(2-trifluoromethyl-benzenesulfonyl)-pyrrolidine-2-carboxylic acid (1-cyano-cyclopropyl)-amide]	1.4	≥ 25000
Cc1cc(N2C[C@H](S(=O)(=O)c3ccccc3C(F)(F)F)C[C@H]2C(=O)NC2(C#N)CC2)n(C2CCN(C(=O)OCc3ccccc3)CC2)n1 [Example 406, 4-{5-[(2S,4R)-2-(1-Cyano-cyclopropylcarbamoyl)-4-(2-trifluoromethyl-benzenesulfonyl)-pyrrolidin-1-yl]-3-methyl-pyrazol-1-yl}-piperidine-1-carboxylic acid Benzyl Ester]	4	≥ 25000
Cc1cc(N2C[C@H](S(=O)(=O)c3ccccc3C(F)(F)F)C[C@H]2C(=O)NC2(C#N)CC2)n(C2CCNCC2)n1 [Example 407, (2S,4R)-1-(5-Methyl-2-piperidin-4-yl-2H-pyrazol-3-yl)-4-(2-trifluoromethyl-benzenesulfonyl)-pyrrolidine-2-carboxylic acid (1-cyano-cyclopropyl)-amide]	38.5	≥ 25000
CS(=O)(=O)[C@@H]1C[C@@H](C(=O)NC2(C#N)CC2)N(C(=O)C2(c3ccc(Cl)cc3)CC2)C1 [Example 409, (2S,4R)-1-[1-(4-Chloro-phenyl)-cyclopropanecarbonyl]-4-methanesulfonyl-pyrrolidine-2-carboxylic acid (1-cyano-cyclopropyl)-amide]	2530	≥ 25000

Now those with a lower IC50 (Cathepsin S), led by results:

IC50 (Cathepsin S) [nM]	IC50 (Cat L) [nM]	Structure (SMILES)
0.05	100	N#CC1(NC(=O)[C@@H]2C[C@@H](S(=O)(=O)c3ccc(OCC(F)(F)F)cc3Cl)CN2C(=O)C2(c3ccc4c(c3)OCO4)CC2)CC1 [Example 384, (2S,4R)-1-(1-Benzo[1,3]dioxol-5-yl-cyclopropanecarbonyl)-4-[2-chloro-4-(2,2,2-trifluoro-ethoxy)-benzenesulfonyl]-pyrrolidine-2-carboxylic acid (1-cyano-cyclopropyl)-amide]
0.54	6460	Cc1cc(N2C[C@H](S(=O)(=O)c3ccc(F)cc3Cl)C[C@H]2C(=O)NC2(C#N)CC2)n(C2CCC2)n1 [Example 385, (2S,4R)-4-(2-Chloro-4-fluoro-benzenesulfonyl)-1-(2-cyclobutyl-5-methyl-2H-pyrazol-3-yl)-pyrrolidine-2-carboxylic acid (1-cyano-cyclopropyl)-amide]
0.48	35600	Cc1cc(N2C[C@H](S(=O)(=O)c3ccc(F)cc3C(F)(F)F)C[C@H]2C(=O)NC2(C#N)CC2)n(C2CCC2)n1 [Example 388, (2S,4R)-1-(2-Cyclobutyl-5-methyl-2H-pyrazol-3-yl)-4-(4-fluoro-2-trifluoromethyl-benzenesulfonyl)-pyrrolidine-2-carboxylic acid (1-cyano-cyclopropyl)-amide]
0.2	8060	Cc1cc(N2C[C@H](S(=O)(=O)c3ccc(N4CCN(C)CC4)cc3C(F)(F)F)C[C@H]2C(=O)NC2(C#N)CC2)n(C2CCC2)n1 [Example 389, (2S,4R)-1-(2-Cyclobutyl-5-methyl-2H-pyrazol-3-yl)-4-[4-(4-methyl-piperazin-1-yl)-2-trifluoromethyl-benzenesulfonyl]-pyrrolidine-2-carboxylic acid (1-cyano-cyclopropyl)-amide]
0.83	120	N#CC1(NC(=O)[C@@H]2C[C@@H](S(=O)(=O)c3ccc(OCC(F)(F)F)cc3Cl)CN2C(=O)C2(c3cccc4ccccc34)OCCO2)CC1 [Example 390, (2S,4R)-4-[2-Chloro-4-(2,2,2-trifluoro-ethoxy)-benzenesulfonyl]-1-(2-naphthalen-1-yl-[1,3]dioxolane-2-carbonyl)-pyrrolidine-2-carboxylic acid (1-cyano-cyclopropyl)-amide]
0.22	16700	Cc1cc(N2C[C@H](S(=O)(=O)c3ccc(OCC(F)(F)F)cc3C(F)(F)F)C[C@H]2C(=O)NC2(C#N)CC2)n(C2CCC2)n1 [Example 391, (2S,4R)-1-(2-Cyclobutyl-5-methyl-2H-pyrazol-3-yl)-4-[4-(2,2,2-trifluoro-ethoxy)-2-trifluoromethyl-benzenesulfonyl]-pyrrolidine-2-carboxylic acid (1-cyano-cyclopropyl)-amide]
0.91	≥ 25000	Cc1cc(N2C[C@H](S(=O)(=O)c3ccc(OCC(F)(F)F)cc3C(F)(F)F)C[C@@H]2C(=O)NC2(C#N)CC2)n(C2CCC2)n1 [Example 392, (2R,4R)-1-(2-Cyclobutyl-5-methyl-2H-pyrazol-3-yl)-4-[4-(2,2,2-trifluoro-ethoxy)-2-trifluoromethyl-benzenesulfonyl]-pyrrolidine-2-carboxylic acid (1-cyano-cyclopropyl)-amide]
0.435	7200	N#CC1(NC(=O)[C@@H]2C[C@@H](S(=O)(=O)c3ccccc3C(F)(F)F)CN2c2cc(C3CCOCC3)nn2C2CCC2)CC1 [Example 397, (2S,4R)-1-[2-Cyclobutyl-5-(tetrahydro-pyran-4-yl)-2H-pyrazol-3-yl]-4-(2-trifluoromethyl-benzenesulfonyl)-pyrrolidine-2-carboxylic acid (1-cyano-cyclopropyl)-amide]
0.555	18800	N#CC1(NC(=O)[C@@H]2C[C@@H](S(=O)(=O)c3ccccc3C(F)(F)F)CN2c2cc(C3CC3)nn2C2CCC2)CC1 [Example 398, (2S,4R)-1-(2-Cyclobutyl-5-cyclopropyl-2H-pyrazol-3-yl)-4-(2-trifluoromethyl-benzenesulfonyl)-pyrrolidine-2-carboxylic acid (1-cyano-cyclopropyl)-amide]
0.46	1080	Cc1cc(N2C[C@H](S(=O)(=O)c3ccc(N4CCN(C)CC4)cc3Cl)C[C@H]2C(=O)NC2(C#N)CC2)n(C2CCC2)n1 [Example 401, (2S,4R)-4-[2-Chloro-4-(4-methyl-piperazin-1-yl)-benzenesulfonyl]-1-(2-cyclobutyl-5-methyl-2H-pyrazol-3-yl)-pyrrolidine-2-carboxylic acid (1-cyano-cyclopropyl)-amide]
0.935	≥ 25000	N#CC1(NC(=O)[C@@H]2C[C@@H](S(=O)(=O)c3ccccc3C(F)(F)F)CN2c2nc(Cl)ns2)CC1 [Example 405, (2S,4R)-1-(3-Chloro-[1,2,4]thiadiazol-5-yl)-4-(2-trifluoromethyl-benzenesulfonyl)-pyrrolidine-2-carboxylic acid (1-cyano-cyclopropyl)-amide]
